What was measured:
[1] = tested on: male wistar rats fed with high-fat diet; test: In vivo anti-obesity efficacy in rats fed high-fat diet; set-up: species or system rat; settings: 85.6 mg/day by gavage
Experimental: Total of 23 male wistar rats (6 weeks) were fed with high-fat diet (45% fat, OpenSource Diets D12451), and entacapone (85.6 mg/day) was administered to 12 randomly selected rats by gavage. After 8 weeks, the mean body weight of drug treatment group was about 11% less than that of control group (*p-value<0.05) (FIG. 4).

[2] = tested on: Ldlr−/− mice fed western style diet; test: Atherosclerosis model: Ldlr-deficient mice; assay type: in vivo, mouse; settings: 300 mg/kg orally blended with diet, after 8 weeks; Oil red O staining; p-value=0.08
Experimental: Atherosclerosis Model: Ldlr-Deficient Mice. We measured entacapone's anti-atherosclerosis efficacy using Ldlr^−/− mice fed western style diet (20% fat, 0.15% cholesterol), entacapone (300 mg/kg) was orally administered by blending with diet. After 8 weeks, the mean lesion area in aortic sinuses of drug treatment group was 28% less than that of control group (p-value=0.08) (FIG. 8). Therefore, entacapone reduces atherosclerosis symptom, comparing with the control.

[3] = tested on: Huh-7 cell line; test: Cellular triglyceride synthesis inhibition; assay type: cell-based; settings: Homo sapiens, dyeing method
Text: FIG. 3. The dose-dependent inhibition activity of entacapone on triglyceride synthesis in Huh-7 cell line. The X-axis is the compound concentration. The Y-axis is “read-out” of the triglyceride concentration using dyeing method.

[4] = tested on: obese male C57BL/6 mice fed with high-fat diet; test: In vivo anti-obesity efficacy in obese mice; set-up: species or system mouse; settings: 300 mg/kg orally blended with diet, after 13 weeks; p<0.05
Experimental: Male C57BL/6 mice were fed with high-fat diet (45% fat, OpenSource Diets D12451) for 8 weeks. Then obese mice with body weight 20% larger than that of mice fed with normal diet (20 mice) were selected for experiments. Entacapone (300 mg/kg) was orally administered to 10 randomly selected obese mice by blending with diet. After 13 weeks, the mean body weight gain of drug treatment group was about 11% less than that of control group (*p-value<0.05) (FIG. 9).

[5] = molecular target: FTO protein (Homo sapiens, UniProt Q9C0B1); test: FTO demethylation assay (enzymatic inhibition); assay type: biochemical; settings: substrate 0.5 μM, enzyme 0.1 μM; ssDNA with N6-mA; HPLC-MS/MS; read-out: IC50 against FTO
Chain of FTO protein (Q9C0B1 whole entry): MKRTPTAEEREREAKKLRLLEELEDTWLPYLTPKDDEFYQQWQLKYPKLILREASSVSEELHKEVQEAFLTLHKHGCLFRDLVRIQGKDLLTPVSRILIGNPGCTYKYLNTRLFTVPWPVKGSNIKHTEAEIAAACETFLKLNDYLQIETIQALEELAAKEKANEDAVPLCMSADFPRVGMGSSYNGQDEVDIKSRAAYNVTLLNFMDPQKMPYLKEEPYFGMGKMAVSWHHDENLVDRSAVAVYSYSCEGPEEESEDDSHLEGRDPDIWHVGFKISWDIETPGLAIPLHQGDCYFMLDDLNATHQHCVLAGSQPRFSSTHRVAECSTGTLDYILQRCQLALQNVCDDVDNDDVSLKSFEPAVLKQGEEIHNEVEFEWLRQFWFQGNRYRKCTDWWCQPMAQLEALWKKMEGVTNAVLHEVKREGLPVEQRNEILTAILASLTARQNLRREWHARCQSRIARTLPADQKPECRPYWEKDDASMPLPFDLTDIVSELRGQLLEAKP
Experimental: We measured the compound's inhibition activity in the demethylation reaction catalyzed by FTO. The assay was performed in 100 μl of reaction system containing 50 mM HEPES buffer (pH=7.0), 100 μM of a-KG, 100 μM of (NH4)2Fe(SO4)2, 1 mM of L-ascorbic acid, 50 ng/ml of BSA, 0.5 μM of ssDNA with N^6-mA (5′-ATTGTCA(m^6A)CAGCAGA-3′), and 0.1 μM of FTO protein. The reaction system was incubated at 37° C. for 2 h and stopped by heating at 95° C. for […] ssDNA was digested by nuclease P1 and alkaline phosphatase. The concentrations of N^6-mA and A were analyzed by HPLC-MS/MS. When concentration of substrate and enzyme are 0.5 μM and 0.1 μM, respectively, the measured IC50 value of entacapone against FTO is ˜9 μM (FIG. 2).

Difference in serum Creatine kinase (drug treatment vs control group) ([1]; rat serum, p-value 0.2311): −17.6% | Difference in serum Glutamic-pyruvic transaminase (drug treatment vs control group) ([1]; rat serum, p-value 0.4962): −5.5% | Difference in serum Bilirubin (drug treatment vs control group) ([1]; rat serum, p-value 0.5814): −10.1% | Difference in serum Albumin ratio (drug treatment vs control group) ([1]; rat serum, p-value 0.9473): −0.063% | IC50 [3]: ~15 µM | IC50 [5]: ~9 µM
Compound: CCN(CC)C(=O)/C(C#N)=C/c1cc(O)c(O)c([N+](=O)[O-])c1 [entacapone, (2E)-2-cyano-3-(3,4-dihydroxy-5-nitrophenyl)-N,N-diethylprop-2-enamide]
mean body weight less than that of control group ([1]; after 8 weeks, high-fat diet, p<0.05): about 11% | decrease of LDL-c in serum compared to control group ([1]; after 8 weeks, p<0.005): about 40% | adipose tissue change vs control (H&E staining) ([1]; high-fat diet): reduced size of adipose cells | body-weight-normalized food intake vs control group ([1]; high-fat diet): no difference | hepatic tissue change vs control (H&E staining) ([1]; high-fat diet): reduced level of liver steatosis | Difference in serum LDL-cholesterol (drug treatment vs control group) ([1]; rat serum, p-value 0.0005): −41.2% | Difference in serum Cholesterol (drug treatment vs control group) ([1]; rat serum, p-value 0.6455): −3.3% | Difference in serum Triglyceride (drug treatment vs control group) ([1]; rat serum, p-value 0.8023): −3.8% | Difference in serum HDL-cholesterol (drug treatment vs control group) ([1]; rat serum, p-value 0.9972): −0.026% | mean lesion area in aortic sinuses less than that of control group [2]: 28% | mean body weight gain less than that of control group [4]: about 11%

— patent US10004715B2, “Entacapone for prevention and treatment of atherosclerosis” (National Institute of Biological Sciences, Beijing, priority 2012, dated 2018)
